The subject of data set [1] is Phytophthora infestans. The class given is in vivo. To be noted: tomato plants, protective spray, active ingredient concentration 100 ppm, evaluation 7 days after inoculation; 0% = control, 100% = no infection.
The conditions of data set [2]: for logp [a]: pH 2.7; for logp [b]: pH 7.8.

As for `CC(C)ON=Cc1cccc(C2CC(c3csc(C4CCN(C(=O)Cn5nc(C(F)F)cc5C(F)F)CC4)n3)=NO2)c1` (mixture of isomers) [I-6], the Eff. % in data set [1] was 100%.

`Cc1cc(C(F)(F)F)nn1CC(=O)N1CCC(c2nc(C3=NOC(c4cccc(C=NOC(C)C)c4)C3)cs2)CC1` (mixture of isomers) [I-8] came in with an Eff. % in data set [1] of 100%.

Consider `CC(=NOC(C)C)c1cccc(C2CC(c3csc(C4CCN(C(=O)Cn5nc(C(F)(F)F)cc5C)CC4)n3)=NO2)c1` (mixture of isomers) [I-9], for which, in data set [1], the Eff. % was 100%.

In data set [1], `CCON=Cc1cccc(C2CC(c3csc(C4CCN(C(=O)Cn5nc(C(F)(F)F)cc5C)CC4)n3)=NO2)c1` (mixture of isomers) [I-11] displayed an Eff. % of 100%. Further, the “logp [a]” value in data set [2] is 3.8[a].

For the molecule `CCON=Cc1cccc(C2CC(c3csc(C4CCN(C(=O)Nc5cc(Cl)ccc5C)CC4)n3)=NO2)c1` (mixture of isomers) [I-12], the Eff. % in data set [1] is recorded as 95%.

Take `Cc1ccc(Cl)cc1NC(=O)N1CCC(c2nc(C3=NOC(c4cccc(C=NOC(C)C)c4)C3)cs2)CC1` (mixture of isomers) [I-13]: in data set [1], the Eff. % is on record as 100%. Also, the “logp [a]” value in data set [2] is 4.4[a].

Take `CC(=NOC(C)C)c1cccc(C2CC(c3csc(C4CCN(C(=O)Cn5nc(C(F)F)cc5C(F)F)CC4)n3)=NO2)c1` (mixture of isomers) [I-20]: the Eff. % in data set [1] came to 100%.

On to `CCON=Cc1cccc(C2CC(c3csc(C4CCN(C(=O)Cn5nc(C(F)F)cc5C(F)F)CC4)n3)=NO2)c1` (mixture of isomers) [I-24], for which, in data set [1], the Eff. % is on record as 100%.

As to `CC(=NOC(C)C)c1ccccc1C1CC(c2csc(C3CCN(C(=O)Cn4nc(C(F)F)cc4C(F)F)CC3)n2)=NO1` (mixture of isomers) [I-28], in data set [1], the Eff. % came out at 100%.

`CC(=NOC(C)C)c1ccccc1C1CC(c2csc(C3CCN(C(=O)Cn4nc(C(F)(F)F)cc4C)CC3)n2)=NO1` (mixture of isomers) [I-30]: the Eff. % in data set [1] stood at 100%.

As for `CCON=Cc1ccccc1C1CC(c2csc(C3CCN(C(=O)Nc4cc(Cl)ccc4C)CC3)n2)=NO1` (mixture of isomers) [I-33], in data set [1], the Eff. % is 100%.

As to `Cc1ccc(Cl)cc1NC(=O)N1CCC(c2nc(C3=NOC(c4ccccc4C=NOC(C)C)C3)cs2)CC1` (mixture of isomers) [I-37], the Eff. % in data set [1] is listed as 100%.

Molecule `Cc1cc(C(F)(F)F)nn1CC(=O)N1CCC(c2nc(C3=NOC(c4ccccc4C=NOC(C)C)C3)cs2)CC1` (mixture of isomers) [I-39] gave an Eff. % in data set [1] of 100%.

The molecule `CC(C)ON=Cc1ccccc1C1CC(c2csc(C3CCN(C(=O)Cn4nc(C(F)F)cc4C(F)F)CC3)n2)=NO1` (mixture of isomers) [I-42] came in with an Eff. % in data set [1] of 100%.

Consider `COCC[S+]([O-])Cc1ccccc1C1CC(c2csc(C3CCN(C(=O)Cn4nc(C(F)F)cc4C(F)F)CC3)n2)=NO1` (mixture of isomers) [I-56], for which the Eff. % in data set [1] is recorded as 94%. Further, the “logp [a]” value in data set [2] was 2.52[a].

On to `CC1(c2ccccc2OS(C)(=O)=O)CC(c2csc(C3CCN(C(=O)Cn4nc(C(F)F)cc4C(F)F)CC3)n2)=NO1` (racemic) [I-43], for which the Eff. % in data set [1] was determined as 94%. Besides, in data set [2], the “logp [a]” value was 3.16[a], and the “logp [b]” value was 3.09[b].

Take `Cc1cc(C(F)F)nn1CC(=O)N1CCC(c2nc(C3=NOC(C)(c4ccccc4OS(C)(=O)=O)C3)cs2)CC1` (racemic) [I-44]: the Eff. % in data set [1] was 94%. In addition, in data set [2], the “logp [a]” value was 2.86[a], and the “logp [b]” value is 2.8[b].

As for `COCCS(=O)(=O)Cc1ccccc1C1CC(c2csc(C3CCN(C(=O)Cn4nc(C(F)(F)F)cc4C)CC3)n2)=NO1` (racemic) [I-45], the Eff. % in data set [1] is listed as 94%. Also, the “logp [a]” value in data set [2] was 3.64[a].

In the case of `Cc1ccc(S(=O)(=O)Oc2ccccc2C2(C)CC(c3csc(C4CCN(C(=O)Cn5nc(C(F)F)cc5C(F)F)CC4)n3)=NO2)cc1` (racemic) [I-48], the Eff. % in data set [1] stood at 94%. In addition, in data set [2], the “logp [a]” value was 4.31[a], and the “logp [b]” value was 4.15[b].

In turn, `Cc1ccc(S(=O)(=O)Oc2ccccc2C2(C)CC(c3csc(C4CCN(C(=O)Cn5nc(C(F)F)cc5C)CC4)n3)=NO2)cc1` (racemic) [I-49] had an Eff. % in data set [1] of 94%. Moreover, in data set [2], the “logp [a]” value is 4.05[a], and the “logp [b]” value was 3.9[b].

For the molecule `CS(=O)(=O)Oc1ccc(F)c(C2CC(c3csc(C4CCN(C(=O)Cn5nc(C(F)F)cc5C(F)F)CC4)n3)=NO2)c1F` (racemic) [I-50], the Eff. % in data set [1] was determined as 94%. For the same molecule, in data set [2], the “logp [a]” value is 2.95[a], and the “logp [b]” value is 2.88[b].

Consider `Cc1cc(C(F)F)nn1CC(=O)N1CCC(c2nc(C3=NOC(c4ccccc4OS(C)(=O)=O)C3)cs2)CC1` (racemic) [I-51], for which the Eff. % in data set [1] was determined as 97%. In data set [2], the “logp [a]” value was 2.59[a], and the “logp [b]” value is 2.61[b].

As to `Cc1ccc(C)c(NC(=O)N2CCC(c3nc(C4=NOC(c5c(Cl)cccc5OS(C)(=O)=O)C4)cs3)CC2)c1` (racemic) [I-52], the Eff. % in data set [1] was determined as 94%. For the same molecule, in data set [2], the “logp [a]” value was 3.35[a], and the “logp [b]” value was 3.25[b].

`N#CCOc1ccc(Cl)cc1C1CC(c2csc(C3CCN(C(=O)Cn4nc(C(F)F)cc4C(F)F)CC3)n2)=NO1` (racemic) [I-58]: in data set [2], the “logp [a]” value is 3.27[a], and the “logp [b]” value is 3.23[b].

`CS(=O)(=O)Oc1ccc(Cl)cc1C1CC(c2csc(C3CCN(C(=O)Cn4nc(C(F)F)cc4C(F)F)CC3)n2)=NO1` (racemic) [I-59]: in data set [2], the “logp [a]” value was 3.27[a], and the “logp [b]” value is 3.25[b].

Regarding `O=C(Cn1nc(C(F)F)cc1C(F)F)N1CCC(c2nc(C3=NOC(c4ccccc4OCC#Cc4cccc5ccccc45)C3)cs2)CC1` (stereo not shown) [I-2], in data set [1], the Eff. % is reported as 100%. Further, in data set [2], the “logp [a]” value is 4.81[a], and the “logp [b]” value is 4.68[b].

On to `Cc1ccc(C2CC(c3csc(C4CCN(C(=O)Cn5nc(C(F)(F)F)cc5C)CC4)n3)=NO2)c(OS(C)(=O)=O)c1` (stereo not shown) [I-66], for which, in data set [2], the “logp [a]” value was 3.26[a], and the “logp [b]” value is 3.21[b].

With `Cc1ccc(OS(C)(=O)=O)c(C2CC(c3csc(C4CCN(C(=O)Cn5nc(C(F)F)cc5C(F)F)CC4)n3)=NO2)c1` (stereo not shown) [I-67], in data set [2], the “logp [a]” value is 3.22[a], and the “logp [b]” value was 3.11[b].

With `C#CCOCc1cccc(F)c1C1CC(c2csc(C3CCN(C(=O)Cn4nc(C(F)F)cc4C(F)F)CC3)n2)=NO1` (stereo not shown) [I-68], the “logp [a]” value in data set [2] was 3.3[a].

On to `CC(=O)OCc1cccc(F)c1C1CC(c2csc(C3CCN(C(=O)Cn4nc(C(F)F)cc4C(F)F)CC3)n2)=NO1` (stereo not shown) [I-69], for which, in data set [2], the “logp [a]” value is 3.12[a].

Take `Cc1ccc(C2CC(c3csc(C4CCN(C(=O)Cn5nc(C(F)F)cc5C(F)F)CC4)n3)=NO2)c(OS(C)(=O)=O)c1` (stereo not shown) [I-72]: in data set [2], the “logp [a]” value was 3.2[a], and the “logp [b]” value was 3.12[b].

`Cc1cc(C(F)F)n(CC(=O)N2CCC(c3nc(C4=NOC(c5ccccc5OS(C)(=O)=O)C4)cs3)CC2)n1` (stereo not shown) [I-73]: in data set [2], the “logp [a]” value was 2.65[a], and the “logp [b]” value was 2.58[b].

As to `Cc1cc(C(F)(F)F)nn1CC(=O)N1CCC(c2nc(C3=NOC(c4c(F)ccc(OS(C)(=O)=O)c4F)C3)cs2)CC1` (stereo not shown) [I-79], in data set [2], the “logp [a]” value was 3.02[a], and the “logp [b]” value was 2.94[b].

Regarding `N#CCOc1ccc(F)c(C2CC(c3csc(C4CCN(C(=O)Cn5nc(C(F)F)cc5C(F)F)CC4)n3)=NO2)c1F` (stereo not shown) [I-80], in data set [2], the “logp [a]” value is 2.96[a], and the “logp [b]” value was 2.85[b].

`COc1cccc(OS(C)(=O)=O)c1C1(C)CC(c2csc(C3CCN(C(=O)Cn4nc(C(F)F)cc4C(F)F)CC3)n2)=NO1` (stereo not shown) [I-88]: in data set [2], the “logp [a]” value was 3.17[a], and the “logp [b]” value is 3.11[b].

As to `COCC[S+]([O-])Cc1ccccc1C1CC(c2csc(C3CCN(C(=O)Cn4nc(C(F)(F)F)cc4C)CC3)n2)=NO1` (stereo not shown) [I-90], the “logp [a]” value in data set [2] is 2.53[a].

As to `Cc1cc(OS(C)(=O)=O)c(C2(C)CC(c3csc(C4CCN(C(=O)Cn5nc(C(F)F)cc5C(F)F)CC4)n3)=NO2)cc1C` (stereo not shown) [I-91], in data set [2], the “logp [a]” value was 3.63[a], and the “logp [b]” value was 3.58[b].

`COc1ccc(OS(C)(=O)=O)c(C2(C)CC(c3csc(C4CCN(C(=O)Cn5nc(C(F)F)cc5C(F)F)CC4)n3)=NO2)c1OC` (stereo not shown) [I-92]: in data set [2], the “logp [a]” value was 3.28[a], and the “logp [b]” value was 3.25[b].

With `CCS(=O)(=O)Oc1ccc(C2CC(c3csc(C4CCN(C(=O)Cn5nc(C(F)F)cc5C(F)F)CC4)n3)=NO2)cc1` (stereo not shown) [I-105], in data set [2], the “logp [a]” value is 2.97[a], and the “logp [b]” value is 2.96[b].

For the molecule `O=C(Cn1nc(C(F)F)cc1C(F)F)N1CCC(c2nc(C3=NOC(c4ccc(OS(=O)(=O)C5CC5)cc4)C3)cs2)CC1` (stereo not shown) [I-106], in data set [2], the “logp [a]” value was 3.06[a], and the “logp [b]” value was 3.05[b].

Consider `Cc1ccc(OCC#N)c(C2CC(c3csc(C4CCN(C(=O)Cn5nc(C(F)F)cc5C(F)F)CC4)n3)=NO2)c1` (stereo not shown) [I-141], for which, in data set [2], the “logp [a]” value is 3.17[a], and the “logp [b]” value was 3.15[b].

As for `Cc1ccc(C2CC(c3csc(C4CCN(C(=O)Cn5nc(C(F)(F)F)cc5C)CC4)n3)=NO2)c(OCC#N)c1` (stereo not shown) [I-142], in data set [2], the “logp [a]” value is 3.29[a], and the “logp [b]” value was 3.22[b].

In the case of `Cc1cc(C(F)F)nn1CC(=O)N1CCC(c2nc(C3=NOC(c4ccccc4OCC#N)C3)cs2)CC1` (stereo not shown) [I-143], in data set [2], the “logp [a]” value was 2.6[a], and the “logp [b]” value is 2.61[b].

For the molecule `Cc1ccc(C2CC(c3csc(C4CCN(C(=O)Cn5nc(C(F)F)cc5C(F)F)CC4)n3)=NO2)c(OCC#N)c1` (stereo not shown) [I-144], in data set [2], the “logp [a]” value was 3.15[a], and the “logp [b]” value was 3.13[b].

On to `CS(=O)(=O)Oc1c(Cl)cccc1C1CC(c2csc(C3CCN(C(=O)Cn4nc(C(F)F)cc4C(F)F)CC3)n2)=NO1` (stereo not shown) [I-145], for which, in data set [2], the “logp [a]” value is 3.19[a], and the “logp [b]” value was 3.19[b].

Regarding `N#CCOc1c(Cl)cccc1C1CC(c2csc(C3CCN(C(=O)Cn4nc(C(F)F)cc4C(F)F)CC3)n2)=NO1` (stereo not shown) [I-146], in data set [2], the “logp [a]” value is 3.14[a], and the “logp [b]” value was 3.26[b].
